Measurements from EP1242084B1, “TREATMENT OF BREAST CARCINOMAS, ASTROCYTOMAS, MELANOMAS AND RELATED TUMORS” (priority 2000, dated 2001).

Assays:
AML-3 patients = details: oral, alone; cited from earlier work
HUMAN LEIOMYOMA CELLS = assay: Leiomyoma cell proliferation and viability, day 7 cell counts with Trypan Blue stain; assay type: cell-based; design: RECENT CELLS LEIOMYOMA: unit not given here; details: for RECENT CELLS LEIOMYOMA: day 7 (control 0.0 MG: 9.0)
Description: Leiomyoma tissues were obtained from several premenopausal women with symptomatic uterine fibroids at elective hysterectomy, and who were not receiving any hormonal or other drug therapy. The fibroid tissues were minced into 1 - 2 mm\# explants and placed in suitable DMEM supplemented with 10% bovine serum. The fibroid tissue was digested for 14 -18 hours at 37 degrees C in an incubator. After centrifugation, a resulting cell pellet was resuspended in DMEM and then placed in culture flasks.
Leiomyoma cells were plated in 100mm dishes (100,000 each dish) and allowed to attach overnight in DMEM plus 10% fetal bovine serum until they reached 80-90% confluence.

[1] = system: human Burkitt's lymphoma (RAJI) cells; assay: Inhibition of proliferation of RAJI cells, MTS assay; assay type: cell-based; details: 900 mcg/ml, 72 hours, statistically significant, read-out: reduction in number of cells which were active
Description: To determine the inhibitory effect of pirfenidone concentrations on Burkitt's lymphoma (RAJI) cells, a MTS assay was used which incorporates a tetrazolium dye that measures the cellular conversion of the dye into a formazan product by the activation of NADH-generating dehydrogenases found in metabolically active cells.
(§1) • 1. 100 microl. of cells was seeded into 96 well plates at 1X10^5 cells/ml in media containing 100 mcg/ml, 300 mcg/ml and 900 mcg/ml of pirfenidone, as well as a pirfenidone-free media control. • 2. Cells were incubated at 37 degrees C, at 5.0% CO2 for 72 hours. • 3. After incubation a standard curve was made of 100 microliters of cells added to the plate at 5X10^5 cells/ml making 1:2 dilutions all the way down to a pre-set degree of dilution. • 4. 2.0 mls of the MTS solution was mixed with a 100 microliter of the PMS solution, and 20 microliters of this combined dye solution was added to each well and incubated at 37 degrees C, 5.0% CO2 for 3 hours. • 5. Subsequently the absorbance was read at 490 nm.

[2] = system: human pro-myelocytic leukemia (HL-60 cells); assay: Inhibition of proliferation of HL-60 cells, Trypan Blue cell counts; assay type: cell-based; details: 1400 micrograms/ml
From the text: […] Five ml of each pirfenidone concentration, and of the control were placed into a T25 tissue culture flask along with 1X10^5 cells. Every day for 4 days an aliquote from each flask was taken out, then stained with Trypan Blue, and counts were repeated three times on each aliquote.

[3] = system: human T-cell leukemia (JURKAT) cells; assay: Inhibition of proliferation of JURKAT cells, MTS assay; assay type: cell-based; details: 900 mcg/ml, 72 hours, statistically significant, read-out: reduction in number of cell which were active
Description: as §1, with “To determine the inhibitory effect of pirfenidone concentrations on human T-cell leukemia (JURKAT), a MTS assay was used which incorporates a tetrazolium dye that measures the cellular conversion of the dye into a formazan product by the activation of NADH-generating dehydrogenases found in metabolically active cells. Procedure: • 1.” for “• 1.”

| SMILES | clinical outcome (AML-3 patients) | RECENT CELLS LEIOMYOMA (HUMAN LEIOMYOMA CELLS; 0.01 MG/ML) | RECENT CELLS LEIOMYOMA (HUMAN LEIOMYOMA CELLS; 0.1 MG/ML) | RECENT CELLS LEIOMYOMA (HUMAN LEIOMYOMA CELLS; 0.3 MG/ML) | RECENT CELLS LEIOMYOMA (HUMAN LEIOMYOMA CELLS; 1.0 MG/ML) | cytotoxicity at 1000 µg/mL (HUMAN LEIOMYOMA CELLS; Homo sapiens, 168 h, read-out: percentage of dead leiomyoma cells) | inhibitory effect on proliferation (HUMAN LEIOMYOMA CELLS; graded concentrations in the culture media, 7 days) | inhibition at 900 µg/mL [1] | Inhibition of proliferation as well as deaths of cells [2] | inhibition at 900 µg/mL [3] |
| --- | --- | --- | --- | --- | --- | --- | --- | --- | --- | --- |
| CC1=C(/C=C/C(C)=C/C=C/C(C)=C/C(=O)O)C(C)(C)CCC1 [All-trans-retinoic acid] | complete remission |  |  |  |  |  |  |  |  |  |
| Cc1ccc(=O)n(-c2ccccc2)c1 [pirfenidone] |  | 8.0 | 10.0 | 6.0 | 16.0 | 16% | significant inhibitory effect | 45% | deaths of almost all cells | 75% |
